# Patent US7553966B2, “Glucocorticoid mimetics, methods of making them, pharmaceutical compositions, and uses thereof” (Boehringer Ingelheim Pharmaceuticals, Inc., priority 2002, dated 2009)
# Columns and labels:
# [1] = target: T1, human glucocorticoid receptor (GR) complex (Homo sapiens, UniProt P04150); assay: Glucocorticoid Receptor Competitive Binding Assay (fluorescence polarization, TAMRA-labeled dexamethasone probe); details: qualitative statement; competition with TAMRA-labeled dexamethasone
# T1 construct: made in house; host or cells: insect expression system (baculovirus lysate)
# T1 sequence (P04150 1-777): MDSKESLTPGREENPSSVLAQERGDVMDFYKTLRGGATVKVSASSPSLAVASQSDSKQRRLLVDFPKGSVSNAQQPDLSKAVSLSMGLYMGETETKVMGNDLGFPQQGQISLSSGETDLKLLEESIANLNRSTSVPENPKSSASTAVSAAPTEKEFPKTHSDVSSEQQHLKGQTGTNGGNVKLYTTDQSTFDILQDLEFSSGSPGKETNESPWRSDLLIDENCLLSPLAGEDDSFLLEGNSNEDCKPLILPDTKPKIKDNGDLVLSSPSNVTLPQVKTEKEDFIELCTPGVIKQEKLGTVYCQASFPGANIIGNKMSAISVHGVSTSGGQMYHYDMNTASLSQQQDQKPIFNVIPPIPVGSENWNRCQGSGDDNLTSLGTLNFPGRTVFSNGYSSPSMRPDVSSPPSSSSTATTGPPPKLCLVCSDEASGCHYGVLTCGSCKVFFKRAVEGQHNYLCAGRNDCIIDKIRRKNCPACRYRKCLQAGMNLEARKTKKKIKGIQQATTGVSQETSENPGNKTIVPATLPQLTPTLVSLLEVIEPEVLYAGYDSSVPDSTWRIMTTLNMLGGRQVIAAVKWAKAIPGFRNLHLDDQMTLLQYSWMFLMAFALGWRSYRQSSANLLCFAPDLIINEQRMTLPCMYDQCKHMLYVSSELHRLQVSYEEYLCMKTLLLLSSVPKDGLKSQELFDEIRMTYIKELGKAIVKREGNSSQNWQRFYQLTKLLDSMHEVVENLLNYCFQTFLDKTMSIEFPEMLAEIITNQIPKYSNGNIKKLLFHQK
# In short: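 Competition with TAMRA-dexamethasone for a human GR complex expressed in insect cells, read by fluorescence polarization. Buffer was 10 mM TES, 50 mM KCl, 20 mM Na2MoO4, 1.5 mM EDTA, 0.04% CHAPS, 10% glycerol, 1 mM DTT, pH 7.4.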
# glucocorticoid receptor = assay: Glucocorticoid Receptor Cell Assays (agonist activity in one or more of the above assays); type: cell-based; details: qualitative statement; assay not specified
# Experimental: B. Glucocorticoid Receptor Cell Assays
# 1. Induction of Aromatase in Fibroblasts (Cell Assay for Transactivation)
# Dexamethasone, a synthetic ligand to the glucocorticoid receptor (GR), induces expression of aromatase in human foreskin fibroblast cells. The activity of aromatase is measured by the conversion of testosterone to estradiol in culture media.
# On the day of the experiment, the media in the wells is replaced with fresh media. Cells are treated with test compounds to final concentrations of 10^−5 M to 10^−8 M, and testosterone to a final concentration of 300 ng/mL. Each well has a total volume of 100 μL. Samples are made in duplicates. Control wells include: (a) wells that receive testosterone only, and (b) wells that receive testosterone plus 2 μM of dexamethasone to provide maximum induction of aromatase. Plates are incubated at 37° C. overnight (15 to 18 hours), and supernatants are harvested at the end of incubation. […] The amount of estradiol is inversely proportional to the ELISA signals in each well. The extent of aromatase induction by test compounds is expressed as a relative percentage to dexamethasone. EC50 values of test compounds are derived by non-linear curve fitting.
# 2. Inhibition of IL-6 Production in Fibroblasts (Cell Assay for Transrepression)
# Human foreskin fibroblast cells produce IL-6 in response to stimulation by pro-inflammatory cytokine IL-1.
# On the next day, media in the wells is replaced with fresh media. Cells are treated with IL-1 (rhIL-1α, R&D Systems Cat. No. 200-LA) to a final concentration of 1 ng/mL, and with test compounds to final concentrations of 10^−5 M to 10^−8 M, in a total volume of 200 μL per well. Samples are done in duplicates. […] Positive control wells receive IL-1 only and represent maximum (or 100%) amount of IL-6 production. Plates are incubated at 37° C. overnight (15 to 18 hours), and supernatants are harvested at the end of incubation. IL-6 levels in the supernatants are determined by the ELISA kits for IL-6 (MedSystems Diagnostics GmbH, Vienna, Austria, Cat. No. BMS213TEN) according to manufacture's instructions. The extent of inhibition of IL-6 by test compounds is expressed in percentage relative to positive controls. IC50 values of test compounds are derived by non-linear curve fitting.
# Evaluation of agonist or antagonist activity of compounds binding to the glucocorticoid receptor may be determined by any of the assays.
# 3. Modulation of Tyrosine Aminotransferase (TAT) Induction in Rat Hepatoma Cells
# Testing of compounds for agonist or antagonist activity in induction of tyrosine aminotransferase (TAT) in rat hepatoma cells.
# H4-II-E-C3 cells were incubated overnight in 96 well plates (20,000 cells/100 μL/well) in MEM medium containing 10% heat inactivated FBS and 1% nonessential amino acids. On the next day, cells were stimulated with the indicated concentrations of dexamethasone or test compound (dissolved in DMSO, final DMSO concentration 0.2%) for 18 hours. Control cells were treated with 0.2% DMSO. After 18 hours, the cells were lysed in a buffer containing 0.1% Triton X-100 and the TAT activity was measured in a photometric assay using tyrosine and alpha-ketoglutarate as substrates.
# For measuring antagonist activity, the hepatoma cells were pre-stimulated by addition of dexamethasone (concentration ranges from 3×10^−9 M to 3×10^−8 M) shortly before the test compound was applied to the cells.
# 4. Modulation of MMTV-Luc Induction in HeLa Cells
# Testing of compounds for agonist or antagonist activity in stimulation of MMTV-(mouse mammary tumor virus) promoter in HeLa cells.
# Cells were cultured overnight in DMEM medium without phenol red, supplemented with 3% CCS (charcoal treated calf serum) and then transferred to 96 well plates (15,000 cells/100 μL/well).
activity in the GR binding assay [1],SMILES,activity as agonists of the glucocorticoid receptor function in one or more of the above assays (glucocorticoid receptor)
potent activity,"COc1ccc(F)cc1C(C)(C)CC(O)(Cc1cc2cnccc2[nH]1)C(F)(F)F (stereo not drawn) [1,1,1-Trifluoro-4-(5-fluoro-2-methoxyphenyl)-4-methyl-2-(1H-pyrrolo[3,2-c]pyridin-2-ylmethyl)pentan-2-ol]",potent agonists
potent activity,COc1cc(F)ccc1C(C)(C)CC(O)(Cc1[nH]c2ccccc2c1C#N)C(F)(F)F (stereo not drawn) [2-[4-(4-Fluoro-2-methoxyphenyl)-2-hydroxy-4-methyl-2-trifluoromethyl-pentyl]-1H-indole-3-carbonitrile],potent agonists
potent activity,"Cc1cccc2[nH]c(CC(O)(CC(C)(C)c3cccc(F)c3)C(F)(F)F)cc12 (stereo not drawn) [1,1,1-Trifluoro-4-(3-fluorophenyl)-4-methyl-2-(4-methyl-1H-indol-2-ylmethyl)pentan-2-ol]",potent agonists
potent activity,"CC(C)(CC(O)(Cc1cc2ccncc2[nH]1)C(F)(F)F)c1cc(F)ccc1O (stereo not drawn) [4-Fluoro-2-[4,4,4-trifluoro-3-hydroxy-1,1-dimethyl-3-(1H-pyrrolo[2,3-c]pyridin-2-ylmethyl)butyl]phenol]",potent agonists
potent activity,"COc1cc(F)ccc1C(C)(C)CC(O)(Cc1cc2ccccc2[nH]1)C(F)(F)F (stereo not drawn) [1,1,1-Trifluoro-4-(4-fluoro-2-methoxyphenyl)-2-(1H-indol-2-ylmethyl)-4-methylpentan-2-ol]",potent agonists
potent activity,"Cc1cccc2[nH]c(CC(O)(CC(C)(C)c3ccc(F)cc3)C(F)(F)F)cc12 (stereo not drawn) [1,1,1-Trifluoro-4-(4-fluorophenyl)-4-methyl-2-(4-methyl-1H-indol-2-ylmethyl)pentan-2-ol]",potent agonists
potent activity,"CC(C)(CC(O)(Cc1cc2ccncc2[nH]1)C(F)(F)F)c1cccc2c1OCC2 (stereo not drawn) [4-(2,3-Dihydrobenzofuran-7-yl)-1,1,1-trifluoro-4-methyl-2-(1H-pyrrolo[2,3-c]pyridin-2-ylmethyl)pentan-2-ol]",potent agonists
potent activity,"CC(C)(CC(O)(Cc1cc2cnccc2[nH]1)C(F)(F)F)c1ccccc1 (stereo not drawn) [1,1,1-Trifluoro-4-methyl-4-phenyl-2-(1H-pyrrolo[3,2-c]pyridin-2-ylmethyl)pentan-2-ol]",potent agonists
potent activity,"CC(C)(CC(O)(Cc1ccnc2ccccc12)C(F)(F)F)c1cccc(C(F)(F)F)c1 (stereo not drawn) [1,1,1-Trifluoro-4-methyl-2-quinolin-4-ylmethyl-4-(3-trifluoromethylphenyl)pentan-2-ol]",potent agonists
potent activity,"Cc1ccc(F)cc1C(C)(C)CC(O)(Cc1cc2c(C)cccc2[nH]1)C(F)(F)F (stereo not drawn) [1,1,1-Trifluoro-4-(5-fluoro-2-methylphenyl)-4-methyl-2-(4-methyl-1H-indol-2-ylmethyl)pentan-2-ol]",potent agonists
potent activity,"COc1ccc(F)cc1C(C)(C)CC(O)(Cc1cc(Cl)nc(Cl)c1)C(F)(F)F (stereo not drawn) [2-(2,6-Dichloropyridin-4-ylmethyl)-1,1,1-trifluoro-4-(5-fluoro-2-methoxyphenyl)-4-methylpentan-2-ol]",potent agonists
potent activity,"COc1ccc(F)cc1C(C)(C)CC(O)(Cc1cc2cccc(F)c2[nH]1)C(F)(F)F (stereo not drawn) [1,1,1-Trifluoro-2-(7-fluoro-1H-indol-2-ylmethyl)-4-(5-fluoro-2-methoxyphenyl)-4-methylpentan-2-ol]",potent agonists
potent activity,"COc1ccc(F)cc1C(C)(C)CC(O)(Cc1ccnc2ccccc12)C(F)(F)F (stereo not drawn) [1,1,1-Trifluoro-4-(5-fluoro-2-methoxyphenyl)-4-methyl-2-(quinolin-4-ylmethyl)pentan-2-ol]",potent agonists
potent activity,"CC(C)(CC(O)(Cc1cc2ccccc2[nH]1)C(F)(F)F)c1cc(Br)cc2c1OCC2 (stereo not drawn) [4-(5-Bromo-2,3-dihydrobenzofuran-7-yl)-1,1,1-trifluoro-2-(1H-indol-2-ylmethyl)-4-methylpentan-2-ol]",potent agonists
potent activity,"Cc1cc2c(c(C(C)(C)CC(O)(Cc3cc4ccccc4[nH]3)C(F)(F)F)c1)OCC2 (stereo not drawn) [1,1,1-Trifluoro-2-(1H-indol-2-ylmethyl)-4-methyl-4-(5-methyl-2,3-dihydrobenzofuran-7-yl)pentan-2-ol]",potent agonists
potent activity,COc1cc(F)ccc1C(C)(C)CC(O)(Cc1cc2cc(C#N)ccc2[nH]1)C(F)(F)F (stereo not drawn) [2-[4-(4-Fluoro-2-methoxyphenyl)-2-hydroxy-4-methyl-2-trifluoromethylpentyl]-1H-indole-5-carbonitrile],potent agonists
potent activity,"CC(C)(CC(O)(Cc1ccnc2ccccc12)C(F)(F)F)c1cc(Br)c2c(c1)CCO2 (stereo not drawn) [4-(7-Bromo-2,3-dihydrobenzofuran-5-yl)-1,1,1-trifluoro-4-methyl-2-quinolin-4-ylmethylpentan-2-ol]",potent agonists
potent activity,"Cc1ccccc1C(C)(C)CC(O)(Cc1cc2ccccc2[nH]1)C(F)(F)F (stereo not drawn) [1,1,1-Trifluoro-2-(1H-indol-2-ylmethyl)-4-methyl-4-o-tolylpentan-2-ol]",potent agonists
